In publication PMC8821502, “Engineering a feedback inhibition-insensitive plant dihydrodipicolinate synthase to increase lysine content in Camelina sativa seeds” (Transgenic Research, 2021):

Experiments:
Assay in all cases: o-aminobenzaldehyde colorimetric DHDPS assay, […] nm
Assay type in all cases: biochemical
CsDHDPS B6 (wt CsDHDPS) [1] = biological target: T1, CsDHDPS B6 (wt CsDHDPS) (Camelina sativa, UniProt A0ABM0Z9P4); settings: read-out: % activity remaining at 25 μM lysine
T1 construct: gene LOC104788368; ORF (365 aa, includes predicted 38-aa chloroplast transit peptide) in pUC18 in-frame with LacZ start codon; E. coli cell extract, not purified; modelled as tetramer
T1 sequence (A0ABM0Z9P4 entry or part of it): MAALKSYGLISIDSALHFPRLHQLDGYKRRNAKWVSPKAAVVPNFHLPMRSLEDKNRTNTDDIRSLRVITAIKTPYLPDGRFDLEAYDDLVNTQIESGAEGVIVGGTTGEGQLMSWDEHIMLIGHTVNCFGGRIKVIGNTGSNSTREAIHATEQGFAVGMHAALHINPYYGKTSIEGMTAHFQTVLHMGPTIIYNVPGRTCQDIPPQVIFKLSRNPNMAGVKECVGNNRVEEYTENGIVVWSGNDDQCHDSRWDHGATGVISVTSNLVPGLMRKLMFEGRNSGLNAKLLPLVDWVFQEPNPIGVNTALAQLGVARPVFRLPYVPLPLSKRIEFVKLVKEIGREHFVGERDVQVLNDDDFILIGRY

CgDHDPS = biological target: T2, CgDHDPS (Corynebacterium glutamicum, UniProt P19808); settings: 2 mM L-ASA, 35 mM pyruvate, pH 8, 37 °C; E. coli extract
T2 construct: gene dapA; ORF (301 aa) in pUC18; E. coli cell extract, not purified
T2 sequence (P19808 1-301): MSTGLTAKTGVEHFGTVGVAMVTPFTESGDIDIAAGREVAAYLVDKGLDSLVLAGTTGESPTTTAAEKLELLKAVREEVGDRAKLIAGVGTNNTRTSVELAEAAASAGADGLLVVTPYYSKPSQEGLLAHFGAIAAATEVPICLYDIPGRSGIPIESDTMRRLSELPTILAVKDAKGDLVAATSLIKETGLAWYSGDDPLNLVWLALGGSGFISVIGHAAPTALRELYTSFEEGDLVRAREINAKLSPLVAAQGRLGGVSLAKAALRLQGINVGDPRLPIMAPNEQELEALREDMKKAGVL

CsDHDPS B6 (wt CsDHDPS) [2] = biological target: T1, CsDHDPS B6 (wt CsDHDPS); settings: 2 mM L-ASA, 35 mM pyruvate, pH 8, 37 °C; E. coli extract

Row | SMILES | remaining activity at 25 µM (CsDHDPS B6 (wt CsDHDPS) [1]) | o-aminobenzaldehyde colorimetric DHDPS assay, 520 nm (CgDHDPS) | o-aminobenzaldehyde colorimetric DHDPS assay, 520 nm (CsDHDPS B6 (wt CsDHDPS) [2])
1 | NCCCC[C@H](N)C(=O)O [lysine] | 20% |  | 
2 | N[C@@H](CC=O)C(=O)O [L-aspartic-β-semi-aldehyde] |  | using L-aspartic-β-semi-aldehyde (L-ASA) as the substrate | using L-aspartic-β-semi-aldehyde (L-ASA) as the substrate
